Results on 21 compounds are retold here after US7205304B2, “Sulfonyl-Derivatives as novel inhibitors of histone deacetylase” (Janssen Pharmaceutica N.V., priority 2002, dated 2007).

Data set [1] addresses histone deacetylase (HeLa nuclear extracts). Nature of the data set: In vitro assay for inhibition of histone deacetylase. The format is biochemical. To be noted: [3H]acetylated histone H4 peptide substrate.
The test system of data set [2] is A2780 ovarian carcinoma cells. The data set is described as follows: Antiproliferative activity on A2780 cells (MTT). The class given is cell-based, human. To be noted: Homo sapiens, four days of incubation, read-out: Cellular activity pIC50 (converted). The method in brief:
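A2780 ovarian carcinoma cells were seeded at 1500 cells/well and exposed to compound for four days, with DMSO ≤0.1%. Viability was measured by MTT (2 h, 37° C) and expressed as a percentage of untreated controls after blank subtraction. Initial single-point testing was at 10^−6 M, then full curves gave pIC50.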

The nature of data set [3]: Kinetic solubility in aqueous media (nephelometry). The format is physicochemical. Conditions: phosphate citrate buffer, pH 7.4, aqueous buffer, kinetic from dmso stock, phosphate citrate buffer pH 7.4, turbidity of three dilution steps; read-out: Solubility Score. The method in brief: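 DMSO stock (5 mM) diluted in three consecutive steps into phosphate citrate buffer pH 7.4, in triplicate; turbidity of each dilution read by nephelometry immediately after the last step. Compounds ranked into 3 classes: score 3 if first dilution clear, 2 if first unclear but second clear.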

The test system of data set [4] is A 2780 ovarium carcinoma cells. The data set is described as follows: A2780 mouse xenograft model. The format is in vivo. Conditions: orally 10, 20 and 40 mpk once daily, day 4 to day 32; two independent studies; maximal inhibition once at 20 mpk, once at 40 mpk. On the procedure: Immunodeficient mice were injected subcutaneously with A 2780 ovarium carcinoma cells (10^7cells/200 μl/mouse). Subsequently they were orally treated with 10, 20 and 40 mpk of compound once daily between day 4 and day 32. The compound was dissolved in 0.9% NaCl, 20% β-cyclodextrine. On day 32 tumours were harvested and individual tumour weight of each mouse was determined. Each experiment included 10 mice.

Assay in data set [5]: not given
The source holds these as a separate data set.

Converted amounts (≈) assume the structure as drawn. Read-outs that look alike come from different tables or passages of the source.

The solubility is the dissolved amount per volume that the medium holds. One may read the melting point as the temperature, or range, at which the solid turns liquid.

For the compound `O=C(NO)c1cnc(N2CCN(S(=O)(=O)c3ccc4ccccc4c3)CC2)cn1` [Compound 116], the melting point was 249 °C. In data set [1], the “Enzyme activity pIC50” value is 7.159. For the same compound, in data set [2] (A2780, 96 h), the IC50 is 861 nM. Further, in data set [3], the solubility is under 75.8 µM.
`NC(=O)C1CN(c2ncc(C(=O)NO)cn2)CCN1S(=O)(=O)c1ccc2ccccc2c1` (stereo not shown) [Compound 118] returned a melting point of 210 °C. The “Enzyme activity pIC50” value in data set [1] was found to be 6.741. In data set [2] (A2780, 96 h), the IC50 was 5300 nM. In addition, in data set [3], the solubility is over 454 µM.
For `O=C(NO)c1cnc(N2CCN(S(=O)(=O)c3ccc4ccccc4c3)CC2)nc1` [Compound 6], the IC50 in data set [2] (96 h) was 46.1 nM. For the same compound, the solubility in data set [3] is 75.8 to 454 µM (≈ 31.3 to 188 µg/mL). The “antitumoural effect (tumour weight on day 32)” value in data set [4] is “strong antitumoural effect at all doses”.
For `O=C(NO)Nc1ccc(N2CCN(S(=O)(=O)c3ccc4ccccc4c3)CC2)cc1` [Compound 4], the melting point was 210 °C. In addition, the “Enzyme activity pIC50” value in data set [1] is given as under 5. Further, the IC50 in data set [2] (A2780, 96 h) was over 10000 nM. Also, the solubility in data set [3] lay within 75.8 to 454 µM (≈ 32.3 to 194 µg/mL).
Taken in the same sequence, the figures for `CC(=O)SCC(=O)c1ccc(N2CCN(S(=O)(=O)c3ccc4ccccc4c3)CC2)cc1` [Compound 10] were 179 °C, 6.7, over 10000 nM and under 75.8 µM.
In the same order, the values of `O=C(NO)c1cnc(N2CCN(S(=O)(=O)c3ccc4ccccc4c3)C(CO)C2)nc1` (stereo not shown) [Compound 121] are 220 °C, 6.833, 2770 nM and over 454 µM.
The compound `CCOc1nc(N2CCN(S(=O)(=O)c3ccc4ccccc4c3)CC2)ncc1C(=O)NO` [Compound 12] had a melting point of 197 °C. Also, the “Enzyme activity pIC50” value in data set [1] is under 5. Also, the IC50 in data set [2] (A2780, 96 h) is 8200 nM.
`CCCO` [propanol]: the “% metabolism of the compound after 15 min of incubation” value in data set [5] (5 μM compound, microsomes 1 mg/ml, NADPH-generating system) worked out at 25%.
For `CN(C)C(=O)c1ccc(N2CCN(S(=O)(=O)c3ccc4ccccc4c3)CC2)nn1` [Compound 113], the melting point was found to be 200 °C. The “Enzyme activity pIC50” value in data set [1] is on record as under 5. The IC50 in data set [2] (A2780, 96 h) was over 10000 nM.
Compound `O=C(NO)c1ccc(N2CCN(S(=O)(=O)c3ccc4ccccc4c3)CC2)nn1` [Compound 120] gave a melting point of over 260 °C. Moreover, the “Enzyme activity pIC50” value in data set [1] is given as 6.491. Besides, the IC50 in data set [2] (A2780, 96 h) was 1010 nM. The solubility in data set [3] is under 75.8 µM.
The compound `Cn1cnc(C(=O)Nc2ccc(N3CCN(S(=O)(=O)c4ccc5ccccc5c4)CC3)cc2)c1` [Compound 5] gave a melting point of 252 °C. In addition, the “Enzyme activity pIC50” value in data set [1] is on record as under 5. In addition, the IC50 in data set [2] (A2780, 96 h) is over 10000 nM.
As for `CC(=O)Nc1ccc(N2CCN(S(=O)(=O)c3ccc4ccccc4c3)CC2)cc1` [Compound 3], the melting point is 200 °C. For the same compound, the “Enzyme activity pIC50” value in data set [1] is listed as under 5. Also, in data set [2] (A2780, 96 h), the IC50 was over 10000 nM. The solubility in data set [3] is under 75.8 µM.
Taken in the same sequence, the figures for `CN(C)Cc1ccccc1-c1ccc(S(=O)(=O)N2CCN(c3ncc(C(=O)NO)cn3)CC2)cc1` [Compound 126] were 190.7 °C, 8.456, 103 nM and under 75.8 µM.
Taken in the same sequence, the figures for `O=C(NO)c1cnc(N2CCN(S(=O)(=O)c3ccc(-c4cccc(CCO)c4)cc3)CC2)nc1` [Compound 129] were over 260 °C, 7.107, 206 nM and over 454 µM.
`O=C(NO)c1cnc(N2CCN(S(=O)(=O)c3ccc4ccccc4c3)CC2)nc1NO` [Compound 119] returned a melting point of 225 °C. Further, in data set [1], the “Enzyme activity pIC50” value is 5.215. Further, the IC50 in data set [2] (A2780, 96 h) was over 10000 nM.
In the same order, the values of `CN(C)c1nc(N2CCN(S(=O)(=O)c3ccc4ccccc4c3)CC2)ncc1C(=O)NO` [Compound 115] are 135 °C, under 5 and 2020 nM.
In turn, `O=C(Nc1ccc(N2CCN(S(=O)(=O)c3ccc4ccccc4c3)CC2)cc1)/C(Cc1ccccc1)=N/O` [Compound 9] yielded a melting point of 226 °C. The “Enzyme activity pIC50” value in data set [1] is under 5. Further, the IC50 in data set [2] (A2780, 96 h) was 3880 nM.
In turn, `Nc1ccccc1NC(=O)c1cnc(N2CCN(S(=O)(=O)c3ccc4ccccc4c3)CC2)nc1` [Compound 13] showed a melting point of 238 °C. Moreover, the “Enzyme activity pIC50” value in data set [1] is under 5. Moreover, the IC50 in data set [2] (A2780, 96 h) was 442 nM. The solubility in data set [3] was under 75.8 µM.
Regarding `COc1cc(N)c(Cl)cc1C(=O)NC1CCN(CCCOc2ccc(F)cc2)CC1OC` (stereo not shown) [Cisapride], the “% metabolism of the compound after 15 min of incubation” value in data set [5] (human, 15 min, 5 μM) is 45%.
As to `O=C(NO)c1ccc(N2CCN(S(=O)(=O)c3ccc4ccccc4c3)CC2)cc1C(F)(F)F` [Compound 11], the melting point is 196 °C. Besides, in data set [1], the “Enzyme activity pIC50” value is under 5. In data set [2] (A2780, 96 h), the IC50 was 1010 nM.
Regarding `CN(C)CC1CN(c2ncc(C(=O)NO)cn2)CCN1S(=O)(=O)c1ccc2ccccc2c1` (stereo not shown) [Compound 123], the melting point turned out to be 114 °C. Moreover, in data set [1], the “Enzyme activity pIC50” value is reported as 6.787. The IC50 in data set [2] (A2780, 96 h) was 2580 nM. Besides, in data set [3], the solubility was over 454 µM.
